This passage reports TGI and GI50 results from PubChem BioAssay (NCI).

Common to all, as to assay: inhibition of tumour cell growth, NCI panel, 48 h
In experiment [1] the test system is SF-295 CNS.
Experiment [2] has as its system A498 renal.
For experiment [3], the system named is UO-31 renal.
Experiment [4] relates to ACHN renal.
For experiment [5], the system named is RXF 393 renal.
The test system of experiment [6] is SK-MEL-5 melanoma.
Experiment [7] relates to IGROV1 ovarian.
Experiment [8] has as its system OVCAR-4 ovarian.
Experiment [9] deals with RPMI-8226 leukemia.
Experiment [10] concerns HCT-116 colon.
For experiment [11], the system named is NCI/ADR-RES ovarian.
Experiment [12] deals with MDA-MB-435.
The subject of experiment [13] is PC-3 prostate.
Experiment [14] deals with MDA-N.
Experiment [15] has as its system MDA-MB-231 breast.

Several values for one entry are separate records, joined by “and”; a condition that tells them apart may be missing. Equal entries are not always repeated.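 Values below derive from 48-hour exposures of cells grown in 96-well plates, with endpoints linearly interpolated between the two concentrations bracketing the appropriate inhibition level. GI50 = concentration required for 50% inhibition of growth. The concentration for full growth arrest is given as TGI.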 *1 amine or outer side, *2 acyl side, *3 side chain or, on linkers, in order; H or OH if unused. Where a SMILES comes first, the peptide text is derived from it. Bridges are numbered along the chain shown (N, C = ends). [ ]: non-standard residue; d: D form. The star is where a group is joined. ξ: configuration not given here. X35 = CC[C@H](C)[C@@H](N[*:1])[C@@H](O)CC(=O)O[C@H](C(=O)[C@H](C)C(=O)[*:2])C(C)C; NMeY = CN[C@@H](Cc1ccc(O)cc1)C(=O)O; NMeF = CN[CH](Cc1ccccc1)C(=O)O; ξNMeF = CNC(Cc1ccccc1)C(=O)O; NMeV = CN[CH](C(=O)O)C(C)C; Boc = CC(C)(C)OC(=O)*; OBn = c1ccc(CO*)cc1 Where only a bound is given, the exact number is not on record here.

For the compound `CN(c1ccccc1)c1cc2ccccc2nn1`, the TGI in [1], in experiment [2], in [3], in [4], in [5] and in experiment [6] was above 100 µM in each case. In addition, the TGI in experiment [7], in experiment [8], in experiment [9] and in [10] was above 100 µM throughout.

On to `O=C(Sc1c(-c2ccccc2)c(=O)n(-c2ccccc2)c(=S)n1-c1ccccc1)c1ccccc1`, for which the TGI in experiment [1], in experiment [3], in experiment [4], in experiment [6], in experiment [7] and in [11] was above 100 µM throughout. The TGI in [12], in experiment [8], in experiment [9], in experiment [13], in experiment [14] and in experiment [10] was above 100 µM in each case.

In the case of `CCc1n[nH]c(=O)n1CC`, the TGI in experiment [1], in experiment [2], in [3], in [4], in experiment [15] and in [6] was above 100 µM in each case. The TGI in experiment [7], in [11], in experiment [12], in experiment [8], in experiment [9] and in experiment [14] was above 100 µM throughout. In experiment [10], the TGI is above 100 µM.

As to `CCN(CC)C(=O)CCn1cc(F)c(=O)[nH]c1=O`, the TGI in experiment [1], in experiment [3], in experiment [4], in experiment [5], in experiment [6] and in experiment [7] was above 100 µM each time. For the same compound, the TGI in experiment [8], in experiment [9] and in [10] was above 100 µM in each case.

In the case of `CC[C@H](C)[C@H]1NC(=O)[C@@H](N)[C@@H](C)OC(=O)[C@H](Cc2ccc(OC)cc2)N(C)C(=O)[C@@H]2CCCN2C(=O)[C@H](CC(C)C)NC(=O)[C@@H](C)C(=O)[C@H](C(C)C)OC(=O)C[C@@H]1O` (H-T[X35]LP[NMeY](Me); ester 1-C), the TGI in experiment [1] was above 100 µM; in experiment [3], 68.7 µM; in experiment [4], above 100 µM; in [5], above 100 µM; in [6], 54.9 µM; in experiment [7] it was above 100 µM. Further, the TGI in [11] is above 100 µM; in [12], 56.1 µM; in experiment [8], above 100 µM; in experiment [9] it was above 100 µM; in experiment [13] it was above 100 µM.

Consider `COc1cccc(NC(=O)CSc2nnc(Cc3ccccc3)o2)c1`, for which the TGI in experiment [1] is above 100 µM; in experiment [2] it was above 100 µM; in experiment [3], above 100 µM; in experiment [4], 63.6 µM; in experiment [5], above 100 µM; in experiment [6], above 100 µM. In addition, the TGI in [7], in experiment [8], in [9] and in experiment [10] was above 100 µM in each case.

Take `CC[C@H](C)[C@@H]([C@@H](CC(=O)N1CCC[C@H]1[C@H](OC)[C@@H](C)C(=O)NCCc1ccccc1)OC)N(C)C(=O)C(NC(=O)[C@H](C(C)C)N(C)C)C(C)C` (stereo partly drawn): the GI50 in [1] was 0.000281 µM. Also, the TGI is above 10 µM in experiment [2]; above 10 µM in [3]; above 10 µM in experiment [4]; above 10 µM in experiment [5]; 0.00271 µM in experiment [15]; above 10 µM in experiment [11]. Also, the TGI in [12] was 0.000192 µM; in experiment [8] it was above 10 µM; in experiment [14] it was 0.000164 µM; in [10], 0.0038 µM.

`CCOC(=O)CN1C(=O)NC(C)(c2ccccc2)C1=O` (stereo not drawn): the TGI in experiment [1], in experiment [2], in experiment [3], in [4], in [5] and in experiment [15] was above 100 µM in each case. In addition, the TGI in experiment [6], in [7], in [11], in [12], in experiment [8] and in experiment [9] was above 100 µM in each case. Besides, the TGI in [13] and in experiment [10] was above 100 µM throughout.

For the compound `CC(C)C(NC(=O)OC(C)(C)C)C(=O)N(C)C(Cc1ccccc1)C(=O)N(C)C(C(=O)OCc1ccccc1)C(C)C` (stereo not drawn) (Boc-Val-[NMeF]-[NMeV]-OBn; configuration not given here), the TGI in [1] is above 100 µM; in experiment [3] it was above 100 µM; in experiment [4], above 100 µM; in experiment [6], 44.6 µM; in experiment [7], above 100 µM; in [9], above 100 µM. The same compound showed a TGI in experiment [10] above 100 µM. The GI50 in [4] is > 100 µM and 41 µM; in experiment [9], 10.8 µM and 25.3 µM.

With `CNC(=O)C(C)Oc1ccc(OCC2CCCCC2)cc1` (stereo not drawn), the TGI in experiment [1], in experiment [2], in experiment [3], in experiment [4], in experiment [5] and in experiment [6] was above 100 µM throughout. The TGI in experiment [7], in [8] and in experiment [10] was above 100 µM throughout.

Take `NS(=O)(=O)c1nnc(NS(=O)(=O)c2ccccc2[N+](=O)[O-])s1`: the TGI in experiment [1], in experiment [2], in experiment [3], in experiment [4], in experiment [5] and in experiment [15] was above 100 µM in each case. The TGI in experiment [6], in [7], in experiment [11], in [12], in experiment [8] and in [9] was above 100 µM each time. In addition, the TGI in experiment [13] and in [10] was above 100 µM each time.

Turning to `C[N+](C)(C)CC(=O)N/N=C(\Cc1nc2ccc([N+](=O)[O-])cc2[nH]c1=O)C(=O)Nc1nc2ccc([N+](=O)[O-])cc2s1`, the TGI in [1], in experiment [2], in experiment [3], in experiment [4], in experiment [5] and in [15] was above 100 µM in each case. Further, the TGI in experiment [6], in [7], in experiment [11], in experiment [12], in experiment [8] and in experiment [9] was above 100 µM each time. Moreover, the TGI in experiment [13] and in [10] was above 100 µM each time.

As to `Nc1nc(SCC(=O)c2ccccc2)c2[nH]cnc2n1`, the TGI in experiment [1], in experiment [2], in [4], in [6], in experiment [7] and in [8] was above 100 µM each time. For the same compound, the TGI in experiment [9] and in experiment [10] was above 100 µM in each case.

For the compound `CC(=O)[O-].CC(=O)[O-].O=C(N/N=C/c1cc(Cl)cc(Cl)c1[OH2+])c1ccncc1.[Mn+2]`, the TGI was 7.48 µM in experiment [1]; 41 µM in experiment [2]; 18.6 µM in experiment [3]; 13.8 µM in [4]; 20.7 µM in experiment [5]; 11 µM in [6]. Further, the TGI came to 10.7 µM in [7], 8.88 µM in experiment [9] and 17.7 µM in experiment [10].

`COc1cc(S(=O)(=O)Nc2ccc(-c3csc(N4C(=O)C(C)SC4c4cccs4)n3)cc2)ccc1Cl` (stereo not drawn): the TGI in [1] is above 100 µM; in experiment [2], above 100 µM; in [3], above 100 µM; in experiment [4], above 100 µM; in experiment [5] it was 31.1 µM; in [6], above 100 µM. Moreover, the TGI in [7], in experiment [11], in experiment [12], in [9], in [13] and in experiment [10] was above 100 µM each time.

On to `O=c1[nH]c(=O)c2c([nH]1)[nH]c1ccc(Br)cc12`, for which the TGI in [1], in [2], in experiment [3], in experiment [4], in experiment [5] and in experiment [15] was above 100 µM each time. Further, the TGI in experiment [6], in experiment [7], in experiment [11], in experiment [12], in experiment [9] and in [14] was above 100 µM each time. The compound further returned a TGI in experiment [10] above 100 µM.

Consider `C/C(=C\COP(=O)(O)OP(=O)(O)O)CCCCCCOCc1ccccc1`, for which the TGI in [1], in [2], in [3], in experiment [4], in experiment [5] and in [15] was above 100 µM in each case. Besides, the TGI in experiment [6], in experiment [7], in [11], in experiment [12], in experiment [8] and in experiment [9] was above 100 µM in each case. Besides, the TGI in [10] was above 100 µM.

Take `Cc1ccc(Nc2cccc3c2C(=O)c2cccc(Nc4ccc(C)cc4S(=O)(=O)O)c2C3=O)c(S(=O)(=O)O)c1`: the TGI in [2], in experiment [3], in experiment [4], in experiment [5], in experiment [6] and in [7] was above 100 µM in each case. The TGI in [8], in [9] and in experiment [10] was above 100 µM each time.

On to `CC(O)CNC(=O)Nc1c(C(F)(F)F)cc(-c2ccccc2)[nH]c1=O` (stereo not drawn), for which the TGI in experiment [1], in [2], in [3], in experiment [4], in [5] and in experiment [15] was above 100 µM throughout. Besides, the TGI in experiment [6], in experiment [7], in [11], in experiment [12], in [8] and in experiment [13] was above 100 µM in each case. The TGI in experiment [10] was above 100 µM.

As to `CC(C)[C@@H](C(=O)N(C)[C@H](C(=O)N1CCC[C@H]1C(=O)OCc1ccccc1)C(C)C)N(C)C(=O)C(Cc1ccccc1)N(C)C(=O)[C@H](NC(=O)OC(C)(C)C)C(C)C` (stereo partly drawn) (Boc-[dV][ξNMeF][NMeV][NMeV]P-OBn), the TGI was above 31.6 µM in experiment [1]; above 31.6 µM in [2]; above 31.6 µM in experiment [3]; above 100 µM in experiment [4]; above 31.6 µM in experiment [5]; 23 µM in experiment [6]. The TGI was above 31.6 µM in [7], above 100 µM in [8], above 31.6 µM in experiment [9] and above 31.6 µM in experiment [10].

As to `COC(=O)C1(C(=O)OC)N=C(C)OC1c1ccccc1O` (stereo not drawn), the TGI in [1], in experiment [2], in [3], in experiment [4], in experiment [5] and in experiment [6] was above 100 µM each time. In addition, the TGI in experiment [7], in experiment [11], in [12], in experiment [8], in [9] and in experiment [13] was above 100 µM in each case. Besides, the TGI in [10] was above 100 µM.

In the case of `Clc1sc(Cl)c2c1[C@H](Cl)C[C@@H]2Cl`, the TGI in [1] is above 100 µM; in experiment [2], above 100 µM; in experiment [3], 32.3 µM; in experiment [4], 95 µM; in [15] it was 90.5 µM; in [6], above 100 µM. Besides, the TGI was 38.6 µM in experiment [7]; 37.4 µM in experiment [11]; 40.2 µM in experiment [12]; 52.7 µM in [8]; 64.5 µM in [14]; 20.9 µM in [10].
